Source: patent US20250145665A1, “MACROCYCLIC PEPTIDES USEFUL AS MODULATORS OF TNF ALPHA” (Bristol-Myers Squibb Company, priority 2023, published 2025)
Starred links: 1 amine or outer side, 2 acyl side, 3 side chain; linkers in the order of their positions; H or OH if unused. Positions of bridges follow the written chain, without caps; N, C: chain ends. Non-standard residues stand in square brackets, D forms with d. Residues, ends and D or L forms follow the SMILES beside them. *: point of attachment. Bip(4'-NHCO-C6H4-3-CH2COOH) = N[C@@H](Cc1ccc(-c2ccc(NC(=O)c3cccc(CC(=O)O)c3)cc2)cc1)C(=O)O; Bip(4'-NHCO-C6H4-4-CH2COOH) = N[C@@H](Cc1ccc(-c2ccc(NC(=O)c3ccc(CC(=O)O)cc3)cc2)cc1)C(=O)O; dArg(ω-(2S)-2,3-diOHpropyl) = N=C(NCCC[C@@H](N)C(=O)O)NC[C@H](O)CO; Bip(4'-NH) = O=C([C@H](Cc1ccc(-c2ccc(N[*:3])cc2)cc1)N[*:1])[*:2]; dArg(ω-(3-HO-benzyl)) = N=C(NCCC[C@@H](N)C(=O)O)NCc1cccc(O)c1; Indazole3carbonyl(1-CH2COOH) = O=C(O)Cn1nc(C(=O)*)c2ccccc21; Bip(4'-COOH) = N[C@@H](Cc1ccc(-c2ccc(C(=O)O)cc2)cc1)C(=O)O; Indole3carbonyl(1-CH2COOH) = O=C(O)Cn1cc(C(=O)*)c2ccccc21; X36 = N=C(NCCC[C@@H](N[*:1])C(=O)[*:2])NCc1cccc(C(=O)O)c1; Ala(imidazol-2-yl) = N[C@@H](Cc1ncc[nH]1)C(=O)O; Ala(morpholin-4-yl) = N[C@@H](CN1CCOCC1)C(=O)O; Benzoyl(3-OCH2COOH) = O=C(O)COc1cccc(C(=O)*)c1; Phe(3-CONH2) = NC(=O)c1cccc(C[C@H](N)C(=O)O)c1; Bip = N[C@@H](Cc1ccc(-c2ccccc2)cc1)C(=O)O; 2Pal = N[C@@H](Cc1ccccn1)C(=O)O; Cha = N[C@@H](CC1CCCCC1)C(=O)O; Sar = CNCC(=O)O

Target: TNFα (Homo sapiens, UniProt P01375)
Experiment: TNF-Induced HEK-Blue Assay
Assay type: cell-based
Settings: not given

TNFα, sequence (P01375 77-233 limits assumed): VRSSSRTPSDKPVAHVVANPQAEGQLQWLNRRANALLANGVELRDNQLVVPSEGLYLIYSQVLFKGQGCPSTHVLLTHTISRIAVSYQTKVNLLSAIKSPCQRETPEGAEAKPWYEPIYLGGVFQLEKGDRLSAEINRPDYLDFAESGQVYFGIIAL

| Structure (SMILES) | IC50 |
| --- | --- |
| CC(C)C[C@@H]1NC(=O)[C@H](CCCNC(=N)N)NC(=O)[C@H](C(C)C)NC(=O)[C@@H]2CCCN2C(=O)[C@H](C(C)C)NC(=O)[C@@H](CCCNC(=N)NC[C@H](O)CO)NC(=O)[C@H](CC(=O)O)NC(=O)[C@@H]2CCCN2C(=O)CN(C)C(=O)[C@H](Cc2ccc(-c3ccc(NC(=O)c4cn(CC(=O)O)c5ccccc45)cc3)cc2)NC(=O)[C@H](Cc2ccc(-c3ccccc3)cc2)NC(=O)[C@H](CN2CCOCC2)NC(=O)CSC[C@@H](C(=O)NCC(N)=O)NC1=O [Example 540] ({CH2CO}-[Ala(morpholin-4-yl)][Bip][Bip(4'-NH)](Indole3carbonyl(1-CH2COOH))[Sar]PD[dArg(ω-(2S)-2,3-diOHpropyl)]VPVRLCG-NH2; thioether N-13) | < 50 nM |
| CC(C)C[C@@H]1NC(=O)[C@H](Cc2ccc(O)cc2)NC(=O)[C@H](C(C)C)NC(=O)[C@@H]2CCCN2C(=O)[C@H](C(C)C)NC(=O)[C@@H](CCCNC(=N)NC[C@H](O)CO)NC(=O)[C@H](CC(=O)O)NC(=O)[C@@H]2CCCN2C(=O)CN(C)C(=O)[C@H](Cc2ccc(-c3ccc(NC(=O)c4nn(CC(=O)O)c5ccccc45)cc3)cc2)NC(=O)[C@H](Cc2ccc(-c3ccc(C(=O)O)cc3)cc2)NC(=O)[C@H](CC2CCCCC2)NC(=O)CSC[C@@H](C(=O)NCC(N)=O)NC1=O [Example 545] ({CH2CO}-[Cha][Bip(4'-COOH)][Bip(4'-NH)](Indazole3carbonyl(1-CH2COOH))[Sar]PD[dArg(ω-(2S)-2,3-diOHpropyl)]VPVYLCG-NH2; thioether N-13) | 50 to 200 nM |
| CC(C)C[C@@H]1NC(=O)[C@H](Cc2cccc(C(N)=O)c2)NC(=O)[C@H](C(C)C)NC(=O)[C@@H]2CCCN2C(=O)[C@H](C(C)C)NC(=O)[C@@H](CCCNC(=N)NC[C@H](O)CO)NC(=O)[C@H](CC(=O)O)NC(=O)[C@H](Cc2ccc(O)cc2)NC(=O)CN(C)C(=O)[C@H](Cc2ccc(-c3ccc(NC(=O)c4nn(CC(=O)O)c5ccccc45)cc3)cc2)NC(=O)[C@H](Cc2ccc(-c3ccccc3)cc2)NC(=O)[C@H](CN2CCOCC2)NC(=O)CSC[C@@H](C(=O)NCC(N)=O)NC1=O [Example 546] ({CH2CO}-[Ala(morpholin-4-yl)][Bip][Bip(4'-NH)](Indazole3carbonyl(1-CH2COOH))[Sar]YD[dArg(ω-(2S)-2,3-diOHpropyl)]VPV[Phe(3-CONH2)]LCG-NH2; thioether N-13) | < 50 nM |
| CC(C)C[C@@H]1NC(=O)[C@H](Cc2cccc(C(N)=O)c2)NC(=O)[C@H](C(C)C)NC(=O)[C@@H]2CCCN2C(=O)[C@H](C(C)C)NC(=O)[C@@H](CCCNC(=N)NC[C@H](O)CO)NC(=O)[C@H](CC(=O)O)NC(=O)[C@H](Cc2ccc(O)cc2)NC(=O)CN(C)C(=O)[C@H](Cc2ccc(-c3ccc(NC(=O)c4cn(CC(=O)O)c5ccccc45)cc3)cc2)NC(=O)[C@H](Cc2ccc(-c3ccccc3)cc2)NC(=O)[C@H](CN2CCOCC2)NC(=O)CSC[C@@H](C(=O)NCC(N)=O)NC1=O [Example 547] ({CH2CO}-[Ala(morpholin-4-yl)][Bip][Bip(4'-NH)](Indole3carbonyl(1-CH2COOH))[Sar]YD[dArg(ω-(2S)-2,3-diOHpropyl)]VPV[Phe(3-CONH2)]LCG-NH2; thioether N-13) | < 50 nM |
| CC(C)C[C@@H]1NC(=O)[C@H](Cc2ncc[nH]2)NC(=O)[C@H](C(C)C)NC(=O)[C@@H]2CCCN2C(=O)[C@H](C(C)C)NC(=O)[C@@H](CCCNC(=N)NCc2cccc(O)c2)NC(=O)[C@H](CC(=O)O)NC(=O)[C@H](Cc2ccccn2)NC(=O)CN(C)C(=O)[C@H](Cc2ccc(-c3ccc(NC(=O)c4nn(CC(=O)O)c5ccccc45)cc3)cc2)NC(=O)[C@H](Cc2ccc(-c3ccc(C(=O)O)cc3)cc2)NC(=O)[C@H](CC2CCCCC2)NC(=O)CSC[C@@H](C(=O)NCC(N)=O)NC1=O [Example 551] ({CH2CO}-[Cha][Bip(4'-COOH)][Bip(4'-NH)](Indazole3carbonyl(1-CH2COOH))[Sar][2Pal]D[dArg(ω-(3-HO-benzyl))]VPV[Ala(imidazol-2-yl)]LCG-NH2; thioether N-13) | < 50 nM |
| CC(C)C[C@@H]1NC(=O)[C@H](Cc2ncc[nH]2)NC(=O)[C@H](C(C)C)NC(=O)[C@@H]2CCCN2C(=O)[C@H](C(C)C)NC(=O)[C@@H](CCCNC(=N)NCc2cccc(O)c2)NC(=O)[C@H](CC(=O)O)NC(=O)[C@H](Cc2ccccn2)NC(=O)CN(C)C(=O)[C@H](Cc2ccc(-c3ccc(NC(=O)c4cn(CC(=O)O)c5ccccc45)cc3)cc2)NC(=O)[C@H](Cc2ccc(-c3ccc(C(=O)O)cc3)cc2)NC(=O)[C@H](CC2CCCCC2)NC(=O)CSC[C@@H](C(=O)NCC(N)=O)NC1=O [Example 552] ({CH2CO}-[Cha][Bip(4'-COOH)][Bip(4'-NH)](Indole3carbonyl(1-CH2COOH))[Sar][2Pal]D[dArg(ω-(3-HO-benzyl))]VPV[Ala(imidazol-2-yl)]LCG-NH2; thioether N-13) | 50 to 200 nM |

Same assay, conditions: HEK-Blue-CD40L cells, NF-kB-driven secreted alkaline phosphatase reporter; TNFα 0.5 ng/ml; 18 h; read-out: TNF induced HEK-Blue assay IC50 value

| IC50 | Structure (SMILES) |
| --- | --- |
| 50 to 200 nM | CC(C)C[C@@H]1NC(=O)[C@H](CCCNC(=N)N)NC(=O)[C@H](C(C)C)NC(=O)[C@@H]2CCCN2C(=O)[C@H](C(C)C)NC(=O)[C@@H](CCCNC(=N)NC[C@H](O)CO)NC(=O)[C@H](CC(=O)O)NC(=O)[C@@H]2CCCN2C(=O)CN(C)C(=O)[C@H](Cc2ccc(-c3ccc(NC(=O)c4cccc(CC(=O)O)c4)cc3)cc2)NC(=O)[C@H](Cc2ccc(-c3ccccc3)cc2)NC(=O)[C@H](CN2CCOCC2)NC(=O)CSC[C@@H](C(=O)NCC(N)=O)NC1=O [Example 537] ({CH2CO}-[Ala(morpholin-4-yl)][Bip][Bip(4'-NHCO-C6H4-3-CH2COOH)][Sar]PD[dArg(ω-(2S)-2,3-diOHpropyl)]VPVRLCG-NH2; thioether N-13) |
| 200 to 2000 nM | CC(C)C[C@@H]1NC(=O)[C@H](CCCNC(=N)N)NC(=O)[C@H](C(C)C)NC(=O)[C@@H]2CCCN2C(=O)[C@H](C(C)C)NC(=O)[C@@H](CCCNC(=N)NC[C@H](O)CO)NC(=O)[C@H](CC(=O)O)NC(=O)[C@@H]2CCCN2C(=O)CN(C)C(=O)[C@H](Cc2ccc(-c3ccc(NC(=O)c4cccc(OCC(=O)O)c4)cc3)cc2)NC(=O)[C@H](Cc2ccc(-c3ccccc3)cc2)NC(=O)[C@H](CN2CCOCC2)NC(=O)CSC[C@@H](C(=O)NCC(N)=O)NC1=O [Example 538] ({CH2CO}-[Ala(morpholin-4-yl)][Bip][Bip(4'-NH)](Benzoyl(3-OCH2COOH))[Sar]PD[dArg(ω-(2S)-2,3-diOHpropyl)]VPVRLCG-NH2; thioether N-13) |
| 200 to 2000 nM | CC(C)C[C@@H]1NC(=O)[C@H](CCCNC(=N)N)NC(=O)[C@H](C(C)C)NC(=O)[C@@H]2CCCN2C(=O)[C@H](C(C)C)NC(=O)[C@@H](CCCNC(=N)NCc2cccc(C(=O)O)c2)NC(=O)[C@H](CC(=O)O)NC(=O)[C@@H]2CCCN2C(=O)CN(C)C(=O)[C@H](Cc2ccc(-c3ccc(NC(=O)c4cccc(CC(=O)O)c4)cc3)cc2)NC(=O)[C@H](Cc2ccc(-c3ccccc3)cc2)NC(=O)[C@H](CN2CCOCC2)NC(=O)CSC[C@@H](C(=O)NCC(N)=O)NC1=O [Example 543] ({CH2CO}-[Ala(morpholin-4-yl)][Bip][Bip(4'-NHCO-C6H4-3-CH2COOH)][Sar]PD[X36]VPVRLCG-NH2; thioether N-13) |
| 200 to 2000 nM | CC(C)C[C@@H]1NC(=O)[C@H](CCCNC(=N)N)NC(=O)[C@H](C(C)C)NC(=O)[C@@H]2CCCN2C(=O)[C@H](C(C)C)NC(=O)[C@@H](CCCNC(=N)NCc2cccc(C(=O)O)c2)NC(=O)[C@H](CC(=O)O)NC(=O)[C@@H]2CCCN2C(=O)CN(C)C(=O)[C@H](Cc2ccc(-c3ccc(NC(=O)c4cccc(OCC(=O)O)c4)cc3)cc2)NC(=O)[C@H](Cc2ccc(-c3ccccc3)cc2)NC(=O)[C@H](CN2CCOCC2)NC(=O)CSC[C@@H](C(=O)NCC(N)=O)NC1=O [Example 544] ({CH2CO}-[Ala(morpholin-4-yl)][Bip][Bip(4'-NH)](Benzoyl(3-OCH2COOH))[Sar]PD[X36]VPVRLCG-NH2; thioether N-13) |
| 50 to 200 nM | CC(C)C[C@@H]1NC(=O)[C@H](Cc2cccc(C(N)=O)c2)NC(=O)[C@H](C(C)C)NC(=O)[C@@H]2CCCN2C(=O)[C@H](C(C)C)NC(=O)[C@@H](CCCNC(=N)NC[C@H](O)CO)NC(=O)[C@H](CC(=O)O)NC(=O)[C@H](Cc2ccc(O)cc2)NC(=O)CN(C)C(=O)[C@H](Cc2ccc(-c3ccc(NC(=O)c4ccc(CC(=O)O)cc4)cc3)cc2)NC(=O)[C@H](Cc2ccc(-c3ccccc3)cc2)NC(=O)[C@H](CN2CCOCC2)NC(=O)CSC[C@@H](C(=O)NCC(N)=O)NC1=O [Example 548] ({CH2CO}-[Ala(morpholin-4-yl)][Bip][Bip(4'-NHCO-C6H4-4-CH2COOH)][Sar]YD[dArg(ω-(2S)-2,3-diOHpropyl)]VPV[Phe(3-CONH2)]LCG-NH2; thioether N-13) |
| 50 to 200 nM | CC(C)C[C@@H]1NC(=O)[C@H](Cc2cccc(C(N)=O)c2)NC(=O)[C@H](C(C)C)NC(=O)[C@@H]2CCCN2C(=O)[C@H](C(C)C)NC(=O)[C@@H](CCCNC(=N)NC[C@H](O)CO)NC(=O)[C@H](CC(=O)O)NC(=O)[C@H](Cc2ccc(O)cc2)NC(=O)CN(C)C(=O)[C@H](Cc2ccc(-c3ccc(NC(=O)c4cccc(CC(=O)O)c4)cc3)cc2)NC(=O)[C@H](Cc2ccc(-c3ccccc3)cc2)NC(=O)[C@H](CN2CCOCC2)NC(=O)CSC[C@@H](C(=O)NCC(N)=O)NC1=O [Example 549] ({CH2CO}-[Ala(morpholin-4-yl)][Bip][Bip(4'-NHCO-C6H4-3-CH2COOH)][Sar]YD[dArg(ω-(2S)-2,3-diOHpropyl)]VPV[Phe(3-CONH2)]LCG-NH2; thioether N-13) |
| 50 to 200 nM | CC(C)C[C@@H]1NC(=O)[C@H](Cc2cccc(C(N)=O)c2)NC(=O)[C@H](C(C)C)NC(=O)[C@@H]2CCCN2C(=O)[C@H](C(C)C)NC(=O)[C@@H](CCCNC(=N)NC[C@H](O)CO)NC(=O)[C@H](CC(=O)O)NC(=O)[C@H](Cc2ccc(O)cc2)NC(=O)CN(C)C(=O)[C@H](Cc2ccc(-c3ccc(NC(=O)c4cccc(OCC(=O)O)c4)cc3)cc2)NC(=O)[C@H](Cc2ccc(-c3ccccc3)cc2)NC(=O)[C@H](CN2CCOCC2)NC(=O)CSC[C@@H](C(=O)NCC(N)=O)NC1=O [Example 550] ({CH2CO}-[Ala(morpholin-4-yl)][Bip][Bip(4'-NH)](Benzoyl(3-OCH2COOH))[Sar]YD[dArg(ω-(2S)-2,3-diOHpropyl)]VPV[Phe(3-CONH2)]LCG-NH2; thioether N-13) |
